Measured values published in ChEMBL document CHEMBL1201862, “PubChem BioAssay data set” (2004).
Activity calls are given as the source filed them.

Legend:
Exodeoxyribonuclease V = target: T1, Exodeoxyribonuclease V (Escherichia coli (strain K12), UniProt P04993+P07648+P08394); assay: E. coli RecBCD inhibitors, dose response, counter-screen for AddAB inhibitor project, absorbance, V66 E. coli, mutant T4 phage (AID 492957); assay type: functional, cell-based, Escherichia coli str. K-12 substr. MG1655
T1 sequence (P04993 whole entry): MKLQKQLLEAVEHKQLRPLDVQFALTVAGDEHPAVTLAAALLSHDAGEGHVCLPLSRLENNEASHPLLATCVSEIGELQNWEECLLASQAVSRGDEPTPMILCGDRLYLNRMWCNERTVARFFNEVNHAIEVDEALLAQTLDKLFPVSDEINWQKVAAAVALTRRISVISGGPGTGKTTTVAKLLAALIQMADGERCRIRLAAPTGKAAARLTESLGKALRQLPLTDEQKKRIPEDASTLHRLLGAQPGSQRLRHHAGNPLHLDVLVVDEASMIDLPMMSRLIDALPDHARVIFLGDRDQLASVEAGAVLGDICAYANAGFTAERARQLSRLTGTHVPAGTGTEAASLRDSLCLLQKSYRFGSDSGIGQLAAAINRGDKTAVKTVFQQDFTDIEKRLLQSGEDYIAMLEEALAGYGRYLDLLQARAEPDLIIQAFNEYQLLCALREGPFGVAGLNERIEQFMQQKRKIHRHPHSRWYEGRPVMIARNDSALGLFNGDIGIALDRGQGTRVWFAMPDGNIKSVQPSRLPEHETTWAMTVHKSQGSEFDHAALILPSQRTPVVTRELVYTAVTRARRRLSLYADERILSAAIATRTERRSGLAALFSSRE
T1 sequence (P07648 whole entry): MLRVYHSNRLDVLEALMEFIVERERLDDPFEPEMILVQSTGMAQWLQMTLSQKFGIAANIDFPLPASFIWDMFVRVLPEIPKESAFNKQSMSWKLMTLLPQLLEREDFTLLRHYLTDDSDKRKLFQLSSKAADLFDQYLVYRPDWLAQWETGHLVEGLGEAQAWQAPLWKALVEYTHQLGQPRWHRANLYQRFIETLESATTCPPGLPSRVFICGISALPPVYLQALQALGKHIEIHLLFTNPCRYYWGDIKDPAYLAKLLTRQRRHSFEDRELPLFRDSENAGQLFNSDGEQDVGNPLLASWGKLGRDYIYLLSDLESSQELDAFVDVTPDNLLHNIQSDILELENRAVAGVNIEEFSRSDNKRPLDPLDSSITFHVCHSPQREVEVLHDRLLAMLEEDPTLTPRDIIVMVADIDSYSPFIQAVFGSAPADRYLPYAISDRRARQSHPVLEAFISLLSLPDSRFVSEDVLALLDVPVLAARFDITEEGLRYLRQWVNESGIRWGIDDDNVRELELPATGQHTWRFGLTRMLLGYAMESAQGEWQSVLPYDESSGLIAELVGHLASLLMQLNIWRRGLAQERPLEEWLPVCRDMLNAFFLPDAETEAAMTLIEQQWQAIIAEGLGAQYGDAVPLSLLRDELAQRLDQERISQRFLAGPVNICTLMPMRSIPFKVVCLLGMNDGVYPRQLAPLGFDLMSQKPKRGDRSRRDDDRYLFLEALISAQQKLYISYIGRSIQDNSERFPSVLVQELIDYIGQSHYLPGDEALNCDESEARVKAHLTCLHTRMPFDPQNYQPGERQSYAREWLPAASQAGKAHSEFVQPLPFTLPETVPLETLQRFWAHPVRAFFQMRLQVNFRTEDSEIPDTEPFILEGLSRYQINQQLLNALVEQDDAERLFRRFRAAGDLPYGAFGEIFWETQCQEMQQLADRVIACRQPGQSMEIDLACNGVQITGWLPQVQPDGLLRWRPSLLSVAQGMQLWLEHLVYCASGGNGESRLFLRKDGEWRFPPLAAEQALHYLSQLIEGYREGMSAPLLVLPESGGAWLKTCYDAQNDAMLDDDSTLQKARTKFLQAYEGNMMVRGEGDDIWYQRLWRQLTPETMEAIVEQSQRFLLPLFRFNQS
T1 sequence (P08394 whole entry): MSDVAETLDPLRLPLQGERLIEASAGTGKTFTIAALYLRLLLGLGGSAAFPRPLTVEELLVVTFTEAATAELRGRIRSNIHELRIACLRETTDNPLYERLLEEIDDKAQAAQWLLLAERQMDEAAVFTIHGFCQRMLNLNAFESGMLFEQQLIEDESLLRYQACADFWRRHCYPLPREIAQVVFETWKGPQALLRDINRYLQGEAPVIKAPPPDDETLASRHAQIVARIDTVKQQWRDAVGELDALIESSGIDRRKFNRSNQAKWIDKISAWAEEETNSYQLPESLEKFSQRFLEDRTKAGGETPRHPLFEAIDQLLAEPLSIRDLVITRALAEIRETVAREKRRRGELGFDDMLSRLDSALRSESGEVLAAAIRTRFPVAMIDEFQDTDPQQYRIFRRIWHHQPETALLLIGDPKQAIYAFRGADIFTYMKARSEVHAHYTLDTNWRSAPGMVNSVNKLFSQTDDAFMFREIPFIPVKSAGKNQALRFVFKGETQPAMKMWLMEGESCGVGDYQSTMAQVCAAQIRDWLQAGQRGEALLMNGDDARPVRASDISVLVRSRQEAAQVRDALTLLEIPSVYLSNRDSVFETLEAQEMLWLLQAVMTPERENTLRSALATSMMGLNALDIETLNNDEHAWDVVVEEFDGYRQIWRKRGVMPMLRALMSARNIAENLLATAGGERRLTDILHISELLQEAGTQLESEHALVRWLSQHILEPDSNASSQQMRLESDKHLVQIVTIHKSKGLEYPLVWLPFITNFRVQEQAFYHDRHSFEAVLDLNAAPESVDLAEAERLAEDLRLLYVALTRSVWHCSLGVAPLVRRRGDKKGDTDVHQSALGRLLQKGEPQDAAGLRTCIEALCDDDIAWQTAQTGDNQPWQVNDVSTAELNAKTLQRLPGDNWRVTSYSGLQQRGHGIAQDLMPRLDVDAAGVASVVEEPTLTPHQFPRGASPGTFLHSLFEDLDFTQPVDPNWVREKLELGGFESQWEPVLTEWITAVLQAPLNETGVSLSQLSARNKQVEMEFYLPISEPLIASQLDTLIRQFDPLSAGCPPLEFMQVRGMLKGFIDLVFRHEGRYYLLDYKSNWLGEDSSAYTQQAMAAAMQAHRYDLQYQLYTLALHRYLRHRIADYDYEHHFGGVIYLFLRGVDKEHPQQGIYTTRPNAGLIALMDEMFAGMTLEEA

[1] = SNU-C1 cell viability reduction, dose response, CellTiter-Glo luminescence (AID 1117323); assay type: functional, cell-based

| SMILES | IC50 (Exodeoxyribonuclease V) | IC50 [1] |
| --- | --- | --- |
| CCCC(=O)NC(c1ccc(C(C)C)cc1)c1ccc2cccnc2c1O (configuration not stated) | > 119 µM (inactive) | – |
| Oc1c(Cl)cc(Cl)c(Cl)c1Cc1c(O)c(Cl)cc(Cl)c1Cl [HEXACHLOROPHENE] | – | 0.032 µM (active) |
